The values below come from PubChem BioAssay AID464 (The Scripps Research Institute Molecular Screening Center, 2006).

Activity calls are given as the source filed them.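 How the source made its calls: active means Compounds that kill half the cells at a concentration of 5 micromolar or below, from the fitted or estimated CC50; inactive means CC50 above 5 micromolar.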

For the experiment, the system named is Jurkat E6.1 viability, ATP luminescence, 48 h. The experiment can be described thus: viability loss in Jurkat T cells – cell-based, ATP luminescence, 48 h, 60K MLSMR, cytotoxicity control, dose response (AID 464).
In the case of `COc1ccc(C)cc1Nc1cc(C)nc2nc(C)nn12`, the CC50 (in general, the concentration at which the toxic effect on the cells reaches its halfway point) is 7080 nM (inactive).
For `CCCC(=O)Nc1nc2ccc(S(=O)(=O)N3CCCCC3)cc2s1`, the CC50 was 2820 nM.
Take `Cc1oc(-c2ccc(Cl)cc2)nc1CN1CCCC(C(=O)N2CCN(C(=O)c3ccco3)CC2)C1` (centres undefined): the CC50 is 2070 nM.
Next, `CCOc1ccccc1C1CC(=O)NC2=C1C(=O)CCC2` (centres undefined): 3600 nM; `O=C(Nc1nnc(-c2cccs2)o1)c1cccc(F)c1`: 21700 nM (inactive); `COc1cc(C2C(C#N)=C(C)NC3=C2C(=O)c2ccccc23)cc(OC)c1OC` (centres undefined): 3480 nM.
Next, `O=C(Nc1ccccc1C(F)(F)F)c1cc(-c2ccccc2O)on1`: > 40000 nM (inactive); `CCOC(=O)N1CCC(NC(=O)c2ccc3c(c2)sc2nc(-c4cccc(OC)c4)cn23)CC1`: 35100 nM (inactive).
Next, `O=C(NCc1ccccc1)c1noc2c1CCCC2`: 8770 nM (inactive); `Cc1c(C(=O)N2CCOCC2)[nH]c2c1C(=O)CC(c1ccccc1Cl)C2` (centres undefined): 1600 nM.
Consider `Nc1ccc(N2CCCCCC2)cc1`, for which the CC50 is 26300 nM (inactive).
Then `COC(=O)c1ccccc1NC(=O)Cn1c(-c2nonc2N)nc2ccccc21`, with 245 nM; and `COc1ccc(-c2cn3c(C)c(C(=O)Nc4cc(NC(C)=O)ccc4OC)sc3n2)cc1`, with 2230 nM; and `Clc1ccc(C2=Nn3c(nnc3-c3n[nH]c4c3CCC4)SC2)cc1`, with 1640 nM.
Next, `Cc1cc(C(=O)CSc2nnc(NCc3ccccc3)s2)c(C)n1C`: 12900 nM (inactive).
Then `Cc1nc(NCc2ccco2)c2c3c(sc2n1)CCC3`, with 15600 nM (inactive); and `Oc1ccc(COCc2ccccc2)c2cccnc12`, with 3060 nM; and `CCc1cc2c(=O)n(Cc3ccco3)c(SCc3c(C)noc3C)nc2s1`, with 4400 nM.
Consider `Cc1cccc(Cn2c(NCC(C)O)nc3c2c(=O)n(C)c(=O)n3C)c1` (centres undefined), for which the CC50 is 8240 nM (inactive).
With `COc1ccc(CC(=O)Nc2nc(C)cs2)cc1OC`, the CC50 is 23400 nM (inactive).
Next, `Cc1cc2c(cc(C(=O)OCC(=O)NCc3cccs3)n2C(C)C)o1`: 837 nM; `Cc1cc(NC(=O)COc2cccc(Oc3ccccc3)c2)no1`: 8940 nM (inactive); `Cc1ccc(-n2c(O)c(C=Nc3ccccc3N)c(=O)[nH]c2=O)cc1C`: > 13000 nM (inactive).
Take `Cc1cc2c(N=O)c(NO)ccc2[nH]1`: the cytotoxic concentration (CC50) was 1970 nM.
Next, `CCOC(=O)c1[nH]c(C)c(C(=O)Nc2ccc(C)c(F)c2)c1C`: 7190 nM (inactive); `COC(=O)c1ccc(C)c(NS(=O)(=O)c2ccc3c(c2)OCCO3)c1`: 504 nM.
Next, `O=C(Cc1n[nH]c(=O)c2ccccc12)OCC(=O)c1ccc2c(c1)OCCO2`: 3400 nM; `COc1cccc(CNC(=O)c2cc3oc4ccccc4c3n2C)c1OC`: > 40000 nM (inactive); `CC1=CC(C)(C)Nc2ccc(OC(=O)c3ccco3)cc21`: 4780 nM.
Then `COc1cccc(OC)c1C1=NCC(=O)Nc2c1oc1ccc(Br)cc21`, with 693 nM; and `COc1ccc(C(=O)C(CN2CCOCC2)c2ccccc2)cc1F` (centres undefined), with 5090 nM (inactive).
On to `COC(=O)Nc1ccc(S(=O)(=O)N2CCCc3ccccc32)cc1`, for which the CC50 was 1060 nM.
Turning to `CCCc1[nH]nc2c1C(c1ccc(Br)s1)C(C#N)=C(N)O2` (centres undefined), the CC50 was > 13000 nM (inactive).
Then `COc1ccccc1S(=O)(=O)Cc1ccc(C(=O)N2CCN(c3cccc(Cl)c3)CC2)o1`, with 3750 nM; and `O=C(NCc1cccs1)c1noc2c1CCCC2`, with 7480 nM (inactive); and `CC(C)(C)n1ncc2c(=O)n(CC(=O)NCc3ccc(F)cc3)cnc21`, with 5130 nM (inactive).
Then `Cc1ccsc1C=Nc1ccc(O)cc1`, with 39300 nM (inactive); and `N=c1c2c(n(Cc3ccc(Cl)cc3Cl)c3c1CCC3)CCCC2`, with 2260 nM; and `Cc1cccc(OCC(=O)Nc2cc(C)ccc2O)c1`, with 5780 nM (inactive).
Then `CC(Oc1ccc(Cl)cc1Cl)C(=O)Nc1ccncc1` (centres undefined), with 7070 nM (inactive); and `CCCCOc1ccccc1NC(=O)Cn1c(-c2nonc2N)nc2ccccc21`, with 733 nM.
Regarding `COC(=O)C1=C(N)Oc2cc(N(C)C)ccc2C1c1ccccc1OC` (centres undefined), the CC50 is 2600 nM.
Next, `CCOC(=O)c1[nH]c(C)c(C(=O)Nc2ccc(C)cc2C)c1C`: 1640 nM; `COc1ccc(C)c(Cn2c(-c3nonc3N)nc3ccccc32)c1`: 1970 nM; `COc1cc(NS(=O)(=O)c2ccc(C)cc2C)cc(OC)c1OC`: 9460 nM (inactive).
Next, `COc1ccccc1-n1cnc(N)c1C(=O)c1ccccc1`: > 4400 nM (inactive); `Oc1ccccc1-c1nnc(SCCN2CCOCC2)n1Cc1ccccc1`: 1700 nM; `O=c1oc2ccccc2cc1NCc1ccccc1O`: > 40000 nM (inactive).
Then `COc1cccc2sc(Nc3nnc(-c4ccccc4Cl)o3)nc12`, with 1130 nM; and `COc1ccc(S(=O)(=O)Cc2ccc(C(=O)N3CCN(c4cccc(C)c4)C(C)C3)o2)cc1` (centres undefined), with 1600 nM.
For `CCCCN(C)S(=O)(=O)c1ccc(C(=O)Nc2nnc(CSC)o2)cc1`, the CC50 is 27900 nM (inactive).
Next, `CC(=O)NC(c1ccco1)c1ccc2cccnc2c1O` (centres undefined): 3650 nM; `CCCOc1ccccc1C1CC(=O)Nc2cc3c(cc21)OCCO3` (centres undefined): 745 nM.
Then `COc1cc(NS(=O)(=O)c2ccc3c(c2)oc(=O)n3C)cc(OC)c1OC`, with 5880 nM (inactive); and `CCOC(=O)N1CCN(C(=O)c2cc(-c3ccc(OCC)cc3)nc3ccccc23)CC1`, with 1690 nM.
Then `CCCCCCOc1ccc(/C(N)=N/O)cc1`, with 6870 nM (inactive); and `Cc1cccc(N2CCN(C(=O)c3ccc(Cl)c(S(=O)(=O)NCc4ccco4)c3)CC2)c1C`, with 9800 nM (inactive); and `COc1cc(-c2nnc3n2N=C(c2ccccc2)CS3)cc(OC)c1OC`, with 392 nM.
`Cc1cc(C(=O)CSc2nnc(-c3cccc(F)c3)n2N)c(C)n1Cc1ccc2c(c1)OCO2`: the CC50 was 9370 nM (inactive).
Next, `Cc1ccccc1-n1ncc2c(SCC(=O)NCc3cccs3)ncnc21`: 5390 nM (inactive); `CC1(C)CC(=O)C2=C(C1)OC1=C(C(=O)CC(C)(C)C1)C2c1ccc(O)cc1O`: 2390 nM; `Cc1onc(-c2ccccc2Cl)c1C(=O)N1CCN(c2cccc(Cl)c2)CC1`: 832 nM.
Then `CN(C)c1nc(N)nc(CSc2nnnn2-c2cccc3ccccc23)n1`, with 6970 nM (inactive).
Take `Cc1noc(C)c1COC(=O)c1cccc(S(=O)(=O)N2CCCCCC2)c1`: the CC50 was 21400 nM (inactive).
Consider `CCOC(=O)CSC1=C(C#N)C(c2ccc(C)s2)CC(=O)N1` (centres undefined), for which the CC50 is 1560 nM.
Regarding `O=S1(=O)Nc2c(ccc3cccnc23)-c2ccccc21`, the CC50 was 4740 nM.
Take `CCCCCCn1c2c(c(=N)c3c1CCC3)CCC2`: the half-maximal cytotoxic concentration (CC50) was 482 nM.
Then `COc1ccc(N=Cc2c(O)[nH]c3ccccc23)cc1OC`, with 11300 nM (inactive); and `O=C(Cc1cccs1)Nc1nc2c(s1)CCCC2`, with > 40000 nM (inactive).
